# Assays:
# Human PKK = target: T1, Human PKK (Homo sapiens, UniProt P03952); assay: Inhibition of PKK using an endpoint assay (human PKK); assay type: biochemical; conditions: fluorogenic substrate H-Pro-Phe-Arg-AMC, 1 h room temperature, method names human or rat PKK, table does not say which
# T1 construct: purchased Enzyme Research Laboratories
# Procedure: The ability of compounds of formula (I) to inhibit plasma kallikrein (PKK), Factor XIIa (FXIIa), Factor XIa (FXIa), Factor Xa (FXa), Factor IIa (alpha-thrombin; FIIa), plasmin, trypsin, tissue kallikrein 1 (TK1), Factor VIIa (FVIIa), or FVIIa complexed with Tissue Factor, phospholipids and CaCl2 (FVIIa/TF/PL/CaCl2) is determined using the following biochemical assays in assay buffer (100 mM Tris, 150 mM NaCL, adjusted to a pH of 7.8 with HCl, and containing 0.1% (w/v) BSA and 0.05% (v/v) Tween20) in the presence of 1% (v/v) DMSO:
# Subsequently, PPACK II (Calbiochem) is added as a stop solution to achieve a final concentration of 1 μM and fluorescence is measured using an Envision Reader (PerkinElmer) with the wavelength excitation setting of 355 nm and the wavelength emission setting of 460 nm.
# [1] = target: T2, PKK in kaolin activated human platelet poor plasma (Homo sapiens, UniProt P03952); assay: Inhibition of PKK in kaolin activated human PPP; assay type: biochemical; conditions: 25-750 μg/mL kaolin, global fit, text b200 calls the values IC90;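 further: readout is the rate of fluorogenic substrate cleavage in rfu per min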
# T2 construct: Platelet poor plasma (PPP) obtained from human wholeblood; from tissue
# Procedure: Platelet poor plasma (PPP) obtained from human wholeblood, anticoagulated with Na-Citrate, is incubated with various concentrations of the test compound together with either 25, 75, 250, or 750 μg/mL kaolin in assay buffer for 20 min at 37° C. such that for each kaolin dose used a concentration response is obtained for the test compound.
# T1 sequence (P03952 20-390 limits assumed): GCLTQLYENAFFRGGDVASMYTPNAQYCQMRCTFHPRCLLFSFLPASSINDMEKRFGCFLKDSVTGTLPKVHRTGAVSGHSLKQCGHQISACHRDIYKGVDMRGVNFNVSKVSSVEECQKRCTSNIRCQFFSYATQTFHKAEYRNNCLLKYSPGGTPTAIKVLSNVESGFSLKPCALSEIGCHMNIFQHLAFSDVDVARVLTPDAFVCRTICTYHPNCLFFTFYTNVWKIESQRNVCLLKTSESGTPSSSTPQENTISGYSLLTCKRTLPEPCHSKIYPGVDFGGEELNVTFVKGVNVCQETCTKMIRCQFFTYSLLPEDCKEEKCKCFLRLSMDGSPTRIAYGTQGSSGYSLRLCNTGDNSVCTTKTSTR
# T1 sequence (P03952 391-638 limits assumed): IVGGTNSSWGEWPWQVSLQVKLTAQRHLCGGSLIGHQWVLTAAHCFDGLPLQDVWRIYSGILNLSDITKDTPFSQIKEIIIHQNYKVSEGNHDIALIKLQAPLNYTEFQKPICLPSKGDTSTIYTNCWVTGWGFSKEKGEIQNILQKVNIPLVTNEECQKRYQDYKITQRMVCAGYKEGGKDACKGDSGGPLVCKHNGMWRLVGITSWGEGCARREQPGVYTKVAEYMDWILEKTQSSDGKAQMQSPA
# T2 sequence (P03952 391-638 limits assumed): as above
# T2 sequence (P03952 20-390 limits assumed): as the sequence (P03952 20-390 limits assumed) above
Structure (SMILES),IC50 (Human PKK) [nM],IC50 [1] [nM]
"Cn1cnc2c1CC[C@H]2NC(=O)c1cn(Cc2ccc(N3CC4C(C3)C4(F)F)nc2Cl)nn1 (stereo partly drawn) [Example 1, 1-[(2-Chloro-6-{6,6-difluoro-3-azabicyclo[3.1.0]hexan-3-yl}pyridin-3-yl)methyl]-N-[(4R)-1-methyl-1H,4H,5H,6H-cyclopenta[d]imidazol-4-yl]-1H-1,2,3-triazole-4-carboxamide]",1.3,290
"COCc1nc(N2CC3C(C2)C3(F)F)ccc1Cn1cc(C(=O)N[C@@H]2CCc3c2ncn3C)cn1 (stereo partly drawn) [Example 2, 1-[(6-{6,6-Difluoro-3-azabicyclo[3.1.0]hexan-3-yl}-2-(methoxymethyl)pyridin-3-yl)methyl]-N-[(4R)-1-methyl-1H,4H,5H,6H-cyclopenta[d]-imidazol-4-yl]-1H-pyrazole-4-carboxamide]",3.1,253
"Cn1cnc2c1CC[C@H]2NC(=O)c1cn(Cc2ccc(N3CC4(CC4)C3)nc2Cl)nn1 [Example 5, 1-[(6-{5-Azaspiro[2.3]hexan-5-yl}-2-chloropyridin-3-yl)methyl]-N-[(4R)-1-methyl-1H,4H,5H,6H-cyclo-penta[d]imidazol-4-yl]-1H-1,2,3-triazole-4-carboxamide]",1.1,278
"Cn1cnc2c1CC[C@H]2NC(=O)c1cn(Cc2ccc(N3CC4(CC4)C3)nc2Br)nn1 [Example 6, 1-[(6-{5-Azaspiro[2.3]hexan-5-yl}-2-bromopyridin-3-yl)methyl]-N-[(4R)-1-methyl-1H,4H,5H,6H-cyclo-penta[d]imidazol-4-yl]-1H-1,2,3-triazole-4-carboxamide]",0.9,1880
"Cn1cnc2c1CC[C@H]2NC(=O)c1cn(Cc2ccc(N3CC4C(C3)C4(F)F)nc2F)cn1 (stereo partly drawn) [Example 7, 1-[(6-{6,6-Difluoro-3-azabicyclo[3.1.0]hexan-3-yl}-2-fluoropyridin-3-yl)methyl]-N-[(4R)-1-methyl-1H,4H,5H,6H-cyclopenta[d]imidazol-4-yl]-1H-imidazole-4-carboxamide]",1.4,151
"Cn1cnc2c1CC[C@H]2NC(=O)c1cn(Cc2ccc(N3CC4CC4C3)cn2)nn1 (stereo partly drawn) [Example 8, 1-[(5-{3-Azabicyclo[3.1.0]hexan-3-yl}pyridin-2-yl)methyl]-N-[(4R)-1-methyl-1H,4H,5H,6H-cyclopenta[d]imidazol-4-yl]-1H-1,2,3-triazole-4-carboxamide]",2.3,352
"Cn1cnc2c1CC[C@H]2NC(=O)c1cnn(Cc2ccc(N3CC4CC4C3)cn2)c1 (stereo partly drawn) [Example 9, 1-[(5-{3-Azabicyclo[3.1.0]hexan-3-yl}pyridin-2-yl)methyl]-N-[(4R)-1-methyl-1H,4H,5H,6H-cyclopenta[d]imidazol-4-yl]-1H-pyrazole-4-carboxamide]",3.8,603
"Cc1nc(N2C[C@@]3(C)C[C@@]3(C)C2)ncc1Cn1cc(C(=O)N[C@@H]2CCc3c2ncn3C)cn1 [Example 225, 1-({2-[(1R,5S)-1,5-Dimethyl-3-azabicyclo[3.1.0]hexan-3-yl]-4-methylpyrimidin-5-yl}methyl)-N-[(4R)-1-methyl-1H,4H,5H,6H-cyclopenta[d]imidazol-4-yl]-1H-pyrazole-4-carboxamide]",232,
"Cc1nc(N2CC3(CCC3)C2)ncc1Cn1cc(C(=O)N[C@@H]2CCc3c2ncn3C)cn1 [Example 226, 1-[(2-{2-Azaspiro[3.3]heptan-2-yl}-4-methylpyrimidin-5-yl)methyl]-N-[(4R)-1-methyl-1H,4H,5H,6H-cyclopenta[d]imidazol-4-yl]-1H-pyrazole-4-carboxamide]",35.7,
"Cc1nc(N2CCC3CC3C2)ncc1Cn1cc(C(=O)N[C@@H]2CCc3c2ncn3C)cn1 (stereo partly drawn) [Example 227, 1-[(2-{3-Azabicyclo[4.1.0]heptan-3-yl]-4-methylpyrimidin-5-yl)methyl]-N-[(4R)-1-methyl-1H,4H,5H,6H-cyclopenta[d]imidazol-4-yl]-1H-pyrazole-4-carboxamide]",45.3,
"Cc1nc(N2CC3C(C2)C3(C)C)ncc1Cn1cc(C(=O)N[C@@H]2CCc3c2ncn3C)cn1 (stereo partly drawn) [Example 228, 1-[(2-{6,6-Dimethyl-3-azabicyclo[3.1.0]hexan-3-yl}-4-methylpyrimidin-5-yl)methyl]-N-[(4R)-1-methyl-1H,4H,5H,6H-cyclopenta[d]imidazol-4-yl]-1H-pyrazole-4-carboxamide]",126,
"Cc1nc(N2C[C@@H]3[C@@H](C)[C@@H]3C2)ncc1Cn1cc(C(=O)N[C@@H]2CCc3c2ncn3C)cn1 [Example 229, N-[(4R)-1-Methyl-1H,4H,5H,6H-cyclopenta[d]imidazol-4-yl]-1-({4-methyl-2-[(1R,5S,6R)-6-methyl-3-azabicyclo[3.1.0]hexan-3-yl]pyrimidin-5-yl}methyl)-1H-pyrazole-4-carboxamide]",110,
"Cc1nc(N2CCC3(CC3)C2)ncc1Cn1cc(C(=O)N[C@@H]2CCc3c2ncn3C)cn1 [Example 230, 1-[(2-{5-Azaspiro[2.4]heptan-5-yl}-4-methylpyrimidin-5-yl)methyl]-N-[(4R)-1-methyl-1H,4H,5H,6H-cyclopenta[d]imidazol-4-yl]-1H-pyrazole-4-carboxamide]",53.7,
"Cc1nc(N2CC3CC(C2)O3)ncc1Cn1cc(C(=O)N[C@@H]2CCc3c2ncn3C)cn1 [Example 231, N-[(4R)-1-Methyl-1H,4H,5H,6H-cyclopenta[d]imidazol-4-yl]-1-[(4-methyl-2-{6-oxa-3-azabicyclo[3.1.1]heptan-3-yl}pyrimidin-5-yl)methyl]-1H-pyrazole-4-carboxamide]",223,
"Cc1nc(N2CCCC3(CC3)C2)ncc1Cn1cc(C(=O)N[C@@H]2CCc3c2ncn3C)cn1 [Example 232, 1-[(2-{5-Azaspiro[2.5]octan-5-yl}-4-methylpyrimidin-5-yl)methyl]-N-[(4R)-1-methyl-1H,4H,5H,6H-cyclopenta[d]imidazol-4-yl]-1H-pyrazole-4-carboxamide]",512,
"COC1C2CC1CN(c1ncc(Cn3cc(C(=O)N[C@@H]4CCc5c4ncn5C)cn3)c(C)n1)C2 (stereo partly drawn) [Example 233, 1-[(2-{6-Methoxy-3-azabicyclo[3.1.1]heptan-3-yl}-4-methylpyrimidin-5-yl)methyl]-N-[(4R)-1-methyl-1H,4H,5H,6H-cyclopenta[d]imidazol-4-yl]-1H-pyrazole-4-carboxamide]",81.4,
"CO[C@H]1[C@@H]2CC[C@H]1CN(c1ncc(Cn3cc(C(=O)N[C@@H]4CCc5c4ncn5C)cn3)c(C)n1)C2 [Example 234, 1-({2-[(1R,5S,8R)-8-Methoxy-3-azabicyclo[3.2.1]octan-3-yl]-4-methylpyrimidin-5-yl}methyl)-N-[(4R)-1-methyl-1H,4H,5H,6H-cyclopenta[d]imidazol-4-yl]-1H-pyrazole-4-carboxamide]",350,
"Cc1nc(N2C[C@@H]3[C@@H](CO)[C@@H]3C2)ncc1Cn1cc(C(=O)N[C@@H]2CCc3c2ncn3C)cn1 [Example 235, 1-({2-[(1R,5S,6S)-6-(Hydroxymethyl)-3-azabicyclo[3.1.0]hexan-3-yl]-4-methylpyrimidin-5-yl}methyl)-N-[(4R)-1-methyl-1H,4H,5H,6H-cyclopenta[d]imidazol-4-yl]-1H-pyrazole-4-carboxamide]",214,
"Cc1nc(N2C[C@@H]3[C@@H](O)[C@@H]3C2)ncc1Cn1cc(C(=O)N[C@@H]2CCc3c2ncn3C)cn1 [Example 236, 1-({2-[(1R,5S,6S)-6-Hydroxy-3-azabicyclo[3.1.0]hexan-3-yl]-4-methylpyrimidin-5-yl}methyl)-N-[(4R)-1-methyl-1H,4H,5H,6H-cyclopenta[d]imidazol-4-yl]-1H-pyrazole-4-carboxamide]",222,
"Cc1nc(N2CCC3(CC2)CC3)ncc1Cn1cc(C(=O)N[C@@H]2CCc3c2ncn3C)cn1 [Example 237, 1-[(2-{6-Azaspiro[2.5]octan-6-yl}-4-methylpyrimidin-5-yl)methyl]-N-[(4R)-1-methyl-1H,4H,5H,6H-cyclopenta[d]imidazol-4-yl]-1H-pyrazole-4-carboxamide]",111,
"Cc1nc(N2CC3CCC3C2)ncc1Cn1cc(C(=O)N[C@@H]2CCc3c2ncn3C)cn1 (stereo partly drawn) [Example 238, 1-[(2-{3-Azabicyclo[3.2.0]heptan-3-yl}-4-methylpyrimidin-5-yl)methyl]-N-[(4R)-1-methyl-1H,4H,5H,6H-cyclopenta[d]imidazol-4-yl]-1H-pyrazole-4-carboxamide]",123,
"Cc1nc(N2CC3CCCC3C2)ncc1Cn1cc(C(=O)N[C@@H]2CCc3c2ncn3C)cn1 (stereo partly drawn) [Example 239, N-[(4R)-1-Methyl-1H,4H,5H,6H-cyclopenta[d]imidazol-4-yl]-1-[(4-methyl-2-{octahydrocyclopenta[c]pyrrol-2-yl}pyrimidin-5-yl)methyl]-1H-pyrazole-4-carboxamide]",123,
"Cc1nc(N2CCC3(CCC3)C2)ncc1Cn1cc(C(=O)N[C@@H]2CCc3c2ncn3C)cn1 [Example 240, 1-[(2-{6-Azaspiro[3.4]octan-6-yl}-4-methylpyrimidin-5-yl)methyl]-N-[(4R)-1-methyl-1H,4H,5H,6H-cyclopenta[d]imidazol-4-yl]-1H-pyrazole-4-carboxamide]",52,
